Data: ChEMBL document CHEMBL1201862, “PubChem BioAssay data set” (2004)
Activity calls are given as the source filed them.

How the values were obtained:
Vero = assay: West Nile virus antiviral activity, cell-based, CPE readout (AID 1621); type: functional; settings: Chlorocebus sabaeus
[1] = biological target: T1, Ubiquitin-conjugating enzyme E2 N (Homo sapiens, UniProt P61088); type: functional;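 also: Dose-response confirmation in a TR-FRET assay detecting UBC13-driven polyubiquitin chain formation, inhibition measured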
T1 sequence (P61088 whole entry): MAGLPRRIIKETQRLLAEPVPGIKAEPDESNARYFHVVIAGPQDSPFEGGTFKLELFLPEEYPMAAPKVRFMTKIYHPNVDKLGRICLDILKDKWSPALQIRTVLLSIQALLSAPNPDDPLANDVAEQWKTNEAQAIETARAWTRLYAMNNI

[2] = A Cell Based Secondary Assay To Explore Cytotoxicity of Compounds that Sensitize Mycobacterium Tuberculosis to Beta-Lactam Antibiotics.; type: functional
[3] = biological target: Peroxisome proliferator-activated receptor gamma/Nuclear receptor coactivator 1 (Homo sapiens, UniProt P37231); type: functional;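 also: agonist potency as compounds enhance coactivator SRC-1 recruitment to PPARgamma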
[4] = biological target: Peroxisome proliferator-activated receptor gamma/Nuclear receptor coactivator 3 (Homo sapiens, UniProt P37231); type: functional;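 also: agonist potency for raising coactivator recruitment to the receptor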
[5] = biological target: Peroxisome proliferator-activated receptor gamma/Nuclear receptor coactivator 2 (Homo sapiens, UniProt P37231); type: functional;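 also: agonist potency for raising coactivator recruitment to the receptor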
NS3 = NS3 (Hepatitis C virus, UniProt A3EZJ3); assay: PubChem AID 2173; design: species or system Hepacivirus hominis
[6] = biological target: T2, Neuropeptide Y receptor type 1 (Homo sapiens, UniProt P25929); type: functional;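 also: HEK293 cells with a CNG channel challenged with NPY then isoproterenol; potency as antagonist that reverses NPY suppression of cAMP signal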
T2 sequence (P25929 whole entry): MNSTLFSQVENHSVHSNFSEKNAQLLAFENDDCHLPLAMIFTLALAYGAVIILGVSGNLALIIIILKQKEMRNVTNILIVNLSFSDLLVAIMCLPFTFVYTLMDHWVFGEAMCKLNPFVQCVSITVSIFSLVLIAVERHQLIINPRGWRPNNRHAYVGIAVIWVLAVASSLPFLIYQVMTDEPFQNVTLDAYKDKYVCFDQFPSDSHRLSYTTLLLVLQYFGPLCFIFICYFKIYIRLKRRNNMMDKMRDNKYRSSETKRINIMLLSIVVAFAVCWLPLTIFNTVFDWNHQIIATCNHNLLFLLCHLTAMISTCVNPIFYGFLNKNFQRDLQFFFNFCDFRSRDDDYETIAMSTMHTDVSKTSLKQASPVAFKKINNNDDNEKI

[7] = biological target: T3, Neuropeptide Y receptor type 2 (Homo sapiens, UniProt P49146); type: functional, cell-based;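 also: HEK293 cells expressing the receptor and a CNG channel; stimulus was NPY near EC95 followed by isoproterenol to raise cAMP; antagonist potency measured as restoring cAMP signal that NPY suppresses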
T3 sequence (P49146 whole entry): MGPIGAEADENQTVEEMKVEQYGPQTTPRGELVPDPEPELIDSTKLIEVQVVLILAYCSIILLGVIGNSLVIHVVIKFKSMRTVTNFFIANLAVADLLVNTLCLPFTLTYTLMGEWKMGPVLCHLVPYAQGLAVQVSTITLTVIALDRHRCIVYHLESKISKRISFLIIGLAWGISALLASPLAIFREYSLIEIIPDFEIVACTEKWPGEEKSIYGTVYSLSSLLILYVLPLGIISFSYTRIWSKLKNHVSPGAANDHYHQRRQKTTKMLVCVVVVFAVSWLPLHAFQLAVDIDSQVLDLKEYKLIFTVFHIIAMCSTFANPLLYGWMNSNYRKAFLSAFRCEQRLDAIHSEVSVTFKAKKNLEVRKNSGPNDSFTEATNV

[8] = biological target: Heat shock 70 kDa protein 1A (Homo sapiens, UniProt P0DMV8); assay: Hsp70 inhibitors, SAR follow-up, biochemical, fluorescence polarization (AID 1072)
[9] = biological target: T4, Alkaline phosphatase, tissue-nonspecific isozyme (Homo sapiens, UniProt P05186); assay: human TNAP enzyme inhibitors, SAR follow-up, biochemical, luminescent, dose response (AID 1056)
T4 sequence (P05186 whole entry): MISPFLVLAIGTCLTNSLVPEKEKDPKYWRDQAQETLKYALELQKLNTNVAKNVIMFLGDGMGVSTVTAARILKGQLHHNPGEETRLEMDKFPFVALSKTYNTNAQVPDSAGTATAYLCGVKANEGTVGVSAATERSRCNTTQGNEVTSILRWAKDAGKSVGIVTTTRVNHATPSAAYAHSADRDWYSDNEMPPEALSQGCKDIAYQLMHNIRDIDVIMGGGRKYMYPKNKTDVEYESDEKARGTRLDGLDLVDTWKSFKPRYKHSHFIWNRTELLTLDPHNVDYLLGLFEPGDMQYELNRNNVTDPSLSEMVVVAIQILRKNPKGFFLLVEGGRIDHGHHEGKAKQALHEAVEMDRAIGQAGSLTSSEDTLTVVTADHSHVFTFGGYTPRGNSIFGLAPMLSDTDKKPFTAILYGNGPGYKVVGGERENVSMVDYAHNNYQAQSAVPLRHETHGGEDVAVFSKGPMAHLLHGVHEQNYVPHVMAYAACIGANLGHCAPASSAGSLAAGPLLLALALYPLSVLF

[10] = biological target: Glyceraldehyde-3-phosphate dehydrogenase (Homo sapiens, UniProt P04406)
[11] = biological target: Heat shock cognate 71 kDa protein (Homo sapiens, UniProt P11142); assay: In Vitro Hsc70 Dose Response Fluorescence Polarization Assay. [Related pubchem assays: 1072 ]
HT-1080 = assay: cytotoxicity in HT1080 fibrosarcoma cells, cell-based, fluorescence readout (AID 620); type: functional; settings: Homo sapiens
[12] = biological target: Luciferin 4-monooxygenase (Photinus pyralis, UniProt P08659); assay: Counter Screen for Luciferase-based Assay Positives. [Related pubchem assays: 620, 618, 411 ]
[13] = inhibitors of Bluetongue virus cytopathic effect, confirmation, arbovirus, BSR cells (AID 1250); type: functional;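 also: protection from viral cytopathic effect measured as cell viability by ATP luminescence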
[14] = biological target: G-protein coupled receptor 55 (Homo sapiens, UniProt Q9Y2T6); assay: GPR55 agonists via beta-arrestin recruitment, primary screen, imaging, U2OS cells, beta-arrestin-GFP redistribution (AID 1961); type: functional
[15] = biological target: T4, Alkaline phosphatase, tissue-nonspecific isozyme
[16] = biological target: Melanin-concentrating hormone receptor 1 (Homo sapiens, UniProt Q99705); assay: Fluorescence-based counterscreen for antagonists of the G-protein coupled receptor 7 (GPR7): cell-based high throughput dose response assay to identify antagonists of the melanin-concentrating hormone receptor 1 (MCHR1).; type: functional
[17] = biological target: Peroxisome proliferator-activated receptor gamma/Nuclear receptor corepressor 2 (Homo sapiens, UniProt P37231+Q9Y618); type: functional
[18] = biological target: Photoreceptor-specific nuclear receptor (Homo sapiens, UniProt Q9Y5X4); type: functional;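 also: potency for compounds that break the NR2E3 corepressor complex and count as activators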
[19] = growth suppression of PTEN-null colon cells, dose response, cell-based, HCT116 PTEN knockout (AID 1047); type: functional;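 also: HCT116 colon tumor cells with PTEN knocked out; cells exposed to compound for 60 hours before readout; potency for loss of cell viability measured by luminescence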
[20] = biological target: Protein-tyrosine kinase 2-beta (Homo sapiens, UniProt Q14289);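 also: potency of inhibitors of PYK2 kinase phosphorylation of poly-GT substrate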
[21] = biological target: Heat shock protein HSP 90-alpha (Homo sapiens, UniProt P07900); type: functional, organism-based
[22] = growth suppression of beta-catenin-knockout colon cells, dose response, cell-based, HCT116, human colon tumor (AID 1045); type: functional;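 also: HCT116 colon tumor cells with beta catenin knocked out; cells exposed to compound for 60 hours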
[23] = biological target: Mitogen-activated protein kinase 10 (Homo sapiens, UniProt P53779); assay: Dose response biochemical screening assay for inhibitors of c-Jun N-Terminal Kinase 3 (JNK3). [Related pubchem assays: 746 ]
[24] = biological target: T5, Dual specificity protein phosphatase 6 (Rattus norvegicus, UniProt Q64346)
T5 sequence (Q64346 whole entry): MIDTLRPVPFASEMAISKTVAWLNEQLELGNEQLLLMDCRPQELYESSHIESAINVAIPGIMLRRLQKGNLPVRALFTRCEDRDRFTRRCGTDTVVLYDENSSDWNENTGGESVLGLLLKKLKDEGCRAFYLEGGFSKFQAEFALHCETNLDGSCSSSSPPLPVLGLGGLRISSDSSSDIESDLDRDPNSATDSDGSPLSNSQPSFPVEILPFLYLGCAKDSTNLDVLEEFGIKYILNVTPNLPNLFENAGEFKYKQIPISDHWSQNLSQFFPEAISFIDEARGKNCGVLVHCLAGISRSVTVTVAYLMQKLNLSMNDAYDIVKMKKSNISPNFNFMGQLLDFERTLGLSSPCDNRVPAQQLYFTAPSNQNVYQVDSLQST

[25] = biological target: T5, Dual specificity protein phosphatase 6; type: functional
[26] = biological target: T6, Tyrosine-protein phosphatase non-receptor type 7 (Homo sapiens, UniProt P35236); type: functional
T6 sequence (P35236 whole entry): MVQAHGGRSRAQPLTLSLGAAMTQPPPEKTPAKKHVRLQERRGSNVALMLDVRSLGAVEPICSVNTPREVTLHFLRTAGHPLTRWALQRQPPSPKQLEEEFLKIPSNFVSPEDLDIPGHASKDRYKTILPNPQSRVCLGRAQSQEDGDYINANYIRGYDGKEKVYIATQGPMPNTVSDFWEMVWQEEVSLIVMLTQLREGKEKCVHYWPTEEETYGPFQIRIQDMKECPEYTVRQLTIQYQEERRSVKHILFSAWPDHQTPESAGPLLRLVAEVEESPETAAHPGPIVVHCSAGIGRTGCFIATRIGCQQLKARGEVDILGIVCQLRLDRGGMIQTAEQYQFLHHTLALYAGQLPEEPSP

Sequence of Peroxisome proliferator-activated receptor gamma/Nuclear receptor coactivator 3 (P37231 whole entry): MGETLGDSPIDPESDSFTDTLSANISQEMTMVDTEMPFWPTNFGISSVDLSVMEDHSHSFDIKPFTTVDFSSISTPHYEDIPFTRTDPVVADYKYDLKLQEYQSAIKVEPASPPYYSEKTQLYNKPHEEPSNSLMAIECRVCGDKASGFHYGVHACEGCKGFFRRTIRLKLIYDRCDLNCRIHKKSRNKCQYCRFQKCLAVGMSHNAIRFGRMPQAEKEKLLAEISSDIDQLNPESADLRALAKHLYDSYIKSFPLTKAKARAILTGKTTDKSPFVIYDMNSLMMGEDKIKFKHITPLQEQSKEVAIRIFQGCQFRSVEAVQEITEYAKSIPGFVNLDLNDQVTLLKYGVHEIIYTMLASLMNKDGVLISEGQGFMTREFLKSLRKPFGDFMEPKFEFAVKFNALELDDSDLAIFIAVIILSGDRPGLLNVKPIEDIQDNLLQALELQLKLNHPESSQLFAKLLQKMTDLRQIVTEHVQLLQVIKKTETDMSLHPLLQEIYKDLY
Sequence of Peroxisome proliferator-activated receptor gamma/Nuclear receptor coactivator 3 (Q9Y6Q9 whole entry, further chain): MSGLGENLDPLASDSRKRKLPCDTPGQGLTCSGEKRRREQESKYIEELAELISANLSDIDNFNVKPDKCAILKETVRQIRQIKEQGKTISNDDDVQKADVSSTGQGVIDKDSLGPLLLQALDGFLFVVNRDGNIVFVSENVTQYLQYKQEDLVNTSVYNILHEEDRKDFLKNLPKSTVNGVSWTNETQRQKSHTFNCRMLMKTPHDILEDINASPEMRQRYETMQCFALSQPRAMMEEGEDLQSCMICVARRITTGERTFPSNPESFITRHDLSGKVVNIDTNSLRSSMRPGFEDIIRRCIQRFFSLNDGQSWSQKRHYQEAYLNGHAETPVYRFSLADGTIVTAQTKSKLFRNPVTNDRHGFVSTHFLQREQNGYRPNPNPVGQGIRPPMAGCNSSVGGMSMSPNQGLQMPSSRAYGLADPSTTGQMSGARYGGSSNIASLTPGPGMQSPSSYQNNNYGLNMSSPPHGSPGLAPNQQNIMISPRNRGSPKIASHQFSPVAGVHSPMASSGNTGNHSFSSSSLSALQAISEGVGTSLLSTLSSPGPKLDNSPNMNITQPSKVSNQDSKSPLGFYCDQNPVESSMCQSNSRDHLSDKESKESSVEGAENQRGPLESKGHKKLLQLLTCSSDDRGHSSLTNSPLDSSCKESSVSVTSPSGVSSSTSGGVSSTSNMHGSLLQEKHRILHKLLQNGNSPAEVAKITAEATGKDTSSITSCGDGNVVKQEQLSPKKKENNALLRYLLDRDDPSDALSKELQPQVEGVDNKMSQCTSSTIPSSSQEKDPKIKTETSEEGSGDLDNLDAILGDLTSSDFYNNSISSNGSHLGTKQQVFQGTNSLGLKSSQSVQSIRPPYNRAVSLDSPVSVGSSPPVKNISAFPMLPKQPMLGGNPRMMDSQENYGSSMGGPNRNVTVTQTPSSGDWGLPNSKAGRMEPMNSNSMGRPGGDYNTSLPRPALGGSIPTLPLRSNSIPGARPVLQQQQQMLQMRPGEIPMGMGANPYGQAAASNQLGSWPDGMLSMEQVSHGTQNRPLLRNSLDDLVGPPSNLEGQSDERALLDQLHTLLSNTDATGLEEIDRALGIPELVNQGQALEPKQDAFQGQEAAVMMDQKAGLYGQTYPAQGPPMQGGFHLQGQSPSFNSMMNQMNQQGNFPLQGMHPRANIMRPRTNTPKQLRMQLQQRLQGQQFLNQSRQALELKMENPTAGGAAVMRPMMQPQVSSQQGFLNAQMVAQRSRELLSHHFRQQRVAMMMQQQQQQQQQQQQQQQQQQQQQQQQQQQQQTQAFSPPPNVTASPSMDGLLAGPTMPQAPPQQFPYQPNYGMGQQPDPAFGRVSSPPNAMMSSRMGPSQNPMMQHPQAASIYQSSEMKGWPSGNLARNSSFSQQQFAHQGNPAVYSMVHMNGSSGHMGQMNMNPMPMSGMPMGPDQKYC
Sequence of Peroxisome proliferator-activated receptor gamma/Nuclear receptor coactivator 1 (P37231 whole entry): as the sequence (P37231 whole entry) above
Sequence of Peroxisome proliferator-activated receptor gamma/Nuclear receptor coactivator 1 (Q15788 whole entry, further chain): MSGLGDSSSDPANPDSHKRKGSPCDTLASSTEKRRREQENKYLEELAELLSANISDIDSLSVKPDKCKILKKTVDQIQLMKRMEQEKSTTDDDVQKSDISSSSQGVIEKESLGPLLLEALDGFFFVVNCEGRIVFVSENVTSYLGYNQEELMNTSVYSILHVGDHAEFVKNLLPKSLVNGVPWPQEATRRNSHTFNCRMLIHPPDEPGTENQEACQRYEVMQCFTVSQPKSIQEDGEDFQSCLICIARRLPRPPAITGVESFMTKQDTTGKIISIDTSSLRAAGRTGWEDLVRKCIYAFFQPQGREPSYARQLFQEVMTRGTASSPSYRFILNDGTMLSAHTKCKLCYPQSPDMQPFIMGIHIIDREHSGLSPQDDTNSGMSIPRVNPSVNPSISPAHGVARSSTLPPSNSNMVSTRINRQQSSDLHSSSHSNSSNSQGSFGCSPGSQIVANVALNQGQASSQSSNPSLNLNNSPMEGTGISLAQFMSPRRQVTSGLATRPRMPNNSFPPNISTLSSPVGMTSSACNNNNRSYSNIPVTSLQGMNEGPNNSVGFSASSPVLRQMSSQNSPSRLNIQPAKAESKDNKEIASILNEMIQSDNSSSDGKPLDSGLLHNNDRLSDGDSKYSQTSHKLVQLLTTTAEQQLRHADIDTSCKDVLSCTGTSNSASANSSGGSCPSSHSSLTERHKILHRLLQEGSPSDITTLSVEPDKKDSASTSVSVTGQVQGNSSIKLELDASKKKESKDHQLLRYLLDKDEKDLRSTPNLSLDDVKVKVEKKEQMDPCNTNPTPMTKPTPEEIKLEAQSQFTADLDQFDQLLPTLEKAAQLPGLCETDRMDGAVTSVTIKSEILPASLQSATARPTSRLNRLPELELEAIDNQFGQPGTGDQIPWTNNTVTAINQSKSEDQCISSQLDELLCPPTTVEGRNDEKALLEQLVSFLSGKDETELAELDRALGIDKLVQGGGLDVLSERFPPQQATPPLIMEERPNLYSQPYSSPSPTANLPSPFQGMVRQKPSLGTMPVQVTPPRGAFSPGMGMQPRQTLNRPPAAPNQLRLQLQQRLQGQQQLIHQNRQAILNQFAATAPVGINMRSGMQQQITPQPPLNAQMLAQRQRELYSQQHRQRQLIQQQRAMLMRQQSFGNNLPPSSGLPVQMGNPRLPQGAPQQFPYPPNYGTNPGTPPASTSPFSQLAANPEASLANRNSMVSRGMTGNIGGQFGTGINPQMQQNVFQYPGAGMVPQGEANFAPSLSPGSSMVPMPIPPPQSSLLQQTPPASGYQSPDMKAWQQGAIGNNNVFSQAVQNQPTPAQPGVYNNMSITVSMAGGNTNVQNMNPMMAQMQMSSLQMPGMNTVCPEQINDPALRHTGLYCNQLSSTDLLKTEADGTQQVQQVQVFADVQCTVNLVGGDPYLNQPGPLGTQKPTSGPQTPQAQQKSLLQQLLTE
Sequence of Heat shock 70 kDa protein 1A (P0DMV8 whole entry): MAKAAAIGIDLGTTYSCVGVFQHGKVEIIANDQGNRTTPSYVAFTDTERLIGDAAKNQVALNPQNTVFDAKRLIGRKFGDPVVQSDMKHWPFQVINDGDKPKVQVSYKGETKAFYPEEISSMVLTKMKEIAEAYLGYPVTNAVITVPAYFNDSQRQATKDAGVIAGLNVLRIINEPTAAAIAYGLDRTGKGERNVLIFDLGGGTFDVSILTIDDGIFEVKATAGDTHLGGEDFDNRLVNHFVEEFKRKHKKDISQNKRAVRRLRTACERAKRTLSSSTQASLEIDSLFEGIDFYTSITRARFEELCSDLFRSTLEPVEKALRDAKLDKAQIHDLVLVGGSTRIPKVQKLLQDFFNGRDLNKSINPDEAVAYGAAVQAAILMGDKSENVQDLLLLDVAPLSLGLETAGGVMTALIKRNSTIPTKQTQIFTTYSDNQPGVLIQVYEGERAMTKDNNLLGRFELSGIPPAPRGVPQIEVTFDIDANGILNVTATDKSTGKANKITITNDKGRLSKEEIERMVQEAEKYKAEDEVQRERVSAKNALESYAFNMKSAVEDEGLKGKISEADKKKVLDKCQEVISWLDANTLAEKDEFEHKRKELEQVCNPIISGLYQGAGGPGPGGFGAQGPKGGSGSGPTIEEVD
Sequence of Luciferin 4-monooxygenase (P08659 whole entry): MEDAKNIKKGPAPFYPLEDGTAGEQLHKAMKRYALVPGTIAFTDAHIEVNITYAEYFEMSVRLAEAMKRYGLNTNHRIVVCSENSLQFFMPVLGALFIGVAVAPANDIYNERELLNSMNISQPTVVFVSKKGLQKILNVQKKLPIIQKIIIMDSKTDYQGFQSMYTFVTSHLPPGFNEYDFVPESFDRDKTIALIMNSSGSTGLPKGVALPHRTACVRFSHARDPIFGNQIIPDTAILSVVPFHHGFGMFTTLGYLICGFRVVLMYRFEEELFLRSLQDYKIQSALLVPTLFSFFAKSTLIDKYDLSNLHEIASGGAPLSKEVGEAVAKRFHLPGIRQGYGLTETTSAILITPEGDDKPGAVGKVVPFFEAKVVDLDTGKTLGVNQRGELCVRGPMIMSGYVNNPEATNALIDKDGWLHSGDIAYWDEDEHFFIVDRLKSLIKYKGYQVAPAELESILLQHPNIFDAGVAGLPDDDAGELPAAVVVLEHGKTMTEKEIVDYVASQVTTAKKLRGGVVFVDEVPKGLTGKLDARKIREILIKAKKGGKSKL

## CCN(CC)CCC(c1cc(OC)c(OC)c(OC)c1)c1c(OC)cc(OC)c2c(-c3ccccc3)cc(=O)oc12 (centres undefined)
Vero
  IC50: 30.8 µM (active)
[1]
  IC50: > 20 µM (inactive)

## O=C1NC(=S)NC(=O)C1=NNc1ccc2c(c1)OCCO2
[2]
  CC50: > 40 µM (active)

## Cc1cc(/C=C2/NC(=O)N(Cc3ccccc3F)C2=O)c(C)n1C
[3]
  EC50: > 79.4 µM (not active)
[4]
  EC50: > 79.4 µM (not active)
[5]
  EC50: > 79.4 µM (not active)

## CC1(C)Cc2c(C#N)c(NCCc3ccccc3)nc(-c3ccco3)c2CO1
NS3
  IC50: 35.3 µM (not active)

## CCCCCC(=O)NC(=S)Nc1ccc(Br)cc1C
[6]
  IC50: 7.66 µM (active)
[7]
  IC50: 6.11 µM (active)

## O=C(CSc1nnc[nH]1)NCCOc1ccccc1
[8]
  IC50: > 100 µM (not active)
[9]
  IC50: 28.8 µM (active)
[10]
  IC50: > 100 µM (not active)
[11]
  IC50: > 100 µM (not active)

## COc1ccc(C(=O)Nn2c(SCC(=O)N3CCC(C)CC3)nc3ccccc3c2=O)cc1
HT-1080
  EC50: > 50 µM (not active)
[12]
  EC50: < 0.2 µM (active)

## COc1ccccc1-c1cc(C(=O)N2CCc3ccccc3C2)c2ccccc2n1
[13]
  IC50: 28.8 µM (active)
[14]
  EC50: 3.06 µM (active)

## O=C(Nc1sc2c(c1C(=O)O)CCCCC2)c1ccccc1
[13]
  IC50: 28.4 µM (active)

## CCOC(=O)CS(=O)(=O)c1ccc(O)cc1
[3]
  EC50: > 79.4 µM (not active)
[4]
  EC50: > 79.4 µM (not active)
[5]
  EC50: > 79.4 µM (not active)

## CN(C(=O)c1ccco1)c1nc2c(s1)CCCC2
HT-1080
  EC50: > 50 µM (not active)
[12]
  EC50: > 100 µM (not active)

## Cc1ccc(Cl)cc1-n1ncc2c(NNC(=O)c3ccco3)ncnc21
[15]
  EC50: 63.2 µM (not active)

## O=C(c1ccc(Cl)c(S(=O)(=O)N2CCCCCC2)c1)N1CCCCC1
[16]
  IC50: 32.7 µM (not active)

## CCN(CC)CCN1C(=O)C(O)=C(C(=O)c2cc3ccccc3o2)C1c1cccnc1 (centres undefined)
[17]
  IC50: 2.95 µM (active)
[18]
  IC50: > 39.8 µM (not active)

## Cc1cccc(CSC2=NCCN2C(=O)c2ccc(Br)o2)c1
[6]
  IC50: < 12 µM (not active)
[7]
  IC50: 12.8 µM (not active)

## CN1CCc2nc3sc(C(=O)C45CC6CC(CC(C6)C4)C5)c(N)c3cc2C1
[19]
  EC50: 20.5 µM (active)
[20]
  IC50: 13.8 µM (not active)
[21]
  AC50: 1.82 µM (active)
[22]
  EC50: 27.4 µM (active)

## CCOc1ccc(NC(=O)c2c(NC(=O)CN3CCN(C)CC3)sc3c2CCC3)cc1
Vero
  IC50: 18.3 µM (active)

## Cc1ccccc1OCC(=O)N/N=C/c1cccc(Oc2ccc([N+](=O)[O-])cc2[N+](=O)[O-])c1
[2]
  CC50: 33.9 µM (active)

## Cn1c(=O)c2c(nc(N/N=C/c3ccc(OC(=O)c4ccco4)cc3)n2Cc2ccccc2)n(C)c1=O
[15]
  EC50: > 100 µM (not active)

## COc1ccc(/C=N/n2c(N)nc3ccccc32)cc1OC
[23]
  IC50: 16.6 µM (not active)

## CCCCCOc1ccc(/C=c2\sc3nc(=O)c(-c4ccccc4)nn3c2=O)cc1OC
NS3
  IC50: > 36.3 µM (not active)

## O=C(O)C(O)c1ccccc1 (centres undefined) [MANDELIC ACID]
[8]
  IC50: > 100 µM (not active)
[24]
  IC50: > 100 µM (inactive)
[10]
  IC50: > 100 µM (not active)
[25]
  IC50: > 100 µM (inactive)
[11]
  IC50: > 100 µM (not active)
[26]
  IC50: > 100 µM (not active)
